In patent US20250084067A1, “PYRAZOLE-SUBSTITUTED CYCLOPENTANOL ESTER DERIVATIVE AND USE THEREOF” (CHIA TAI TIANQING PHARMACEUTICAL GROUP CO., LTD., priority 2022, published 2025):
Read-outs that look alike come from different tables or passages of the source.

How the values were obtained:
[1] = target: CDK2 CycE1 kinase (Homo sapiens (Human), UniProt P24941); experiment: Determination of inhibitory activity against CDK2 CycE1 kinase; format: biochemical
Protocol: CDK2 CycE1 kinase solution (concentration: 0.015 ng/μL) was added to assay wells at 6 μL/well, and different compounds dissolved in DMSO were added to the assay wells separately using a nanoliter pipettor, such that the final concentrations of the compounds were 300 nM to 0.07 nM. The wells were set in duplicate, and a control well was set. After incubation of the above system for 30 min, ATP (concentration: 50 μM or 5000 μM) was mixed with ULight-Myelin Basic Protein Peptide substrate (manufacturer: PerkinElmer, concentration: […]) at a ratio of 1:1, and the mixture was added to the assay wells at 4 μL/well. The resulting mixture was left to react at room temperature for 2 h, and then 5 μL of EDTA was added to terminate the reaction, followed by addition of 5 μL of a detection antibody (manufacturer: PerkinElmer, concentration: 8 nM). The mixture was incubated at room temperature for 1 h.

[2] = target: CDK2/CycA2 kinase (Homo sapiens (Human), UniProt P24941); experiment: Determination of inhibitory activity against CDK2/CycA2 kinase; format: biochemical
Protocol: The wells were set in duplicate, and a control well was set. […] The resulting mixture was left to react at room temperature for 2 h, and then 5 µL of EDTA was added to terminate the reaction, followed by addition of 5 μL of a detection antibody (manufacturer: PerkinElmer, concentration: 8 nM). The mixture was incubated at room temperature for 1 h.

[3] = read-out: CDK2/CycE1 10 μM ATP (kinase) IC50
[4] = read-out: CDK2/CycA2 10 μM ATP (kinase) IC50

Row | SMILES | IC50 ([1]; 10 μM ATP) [nM] | IC50 ([2]; 10 μM ATP) [nM] | IC50 [1, 3] [nM] | IC50 [2, 4] [nM]
1 | COc1cc(Nc2cc([C@H]3CC[C@@H](OC(=O)NC(C)C)C3)[nH]n2)ccc1NS(C)(=O)=O [Example 55] | < 10 | < 10 | – | –
2 | COc1ccc(Nc2cc([C@H]3CC[C@@H](OC(=O)NC(C)C)C3)[nH]n2)nc1 [Example 9] | < 10 | 10 to 50 | – | –
3 | CC(C)NC(=O)O[C@@H]1CC[C@H](c2cc(Nc3ccc(S(N)(=O)=O)cc3)n[nH]2)C1 [Example 65] | < 10 | < 10 | – | –
4 | CC(C)NC(=O)O[C@@H]1CC[C@H](c2cc(Nc3ccc4c(c3)OCO4)n[nH]2)C1 [Example 39] | < 10 | < 10 | – | –
5 | CC(C)NC(=O)O[C@@H]1CC[C@H](c2cc(Nc3ccc(NS(C)(=O)=O)c(F)n3)n[nH]2)C1 [Example 24] | < 10 | < 10 | – | –
6 | CC(C)NC(=O)O[C@@H]1CC[C@H](c2cc(Nc3ccc(NS(C)(=O)=O)c(F)c3F)n[nH]2)C1 [Example 37] | < 10 | < 10 | – | –
7 | CC(C)NC(=O)O[C@@H]1CC[C@H](c2cc(Nc3ccc(NS(C)(=O)=O)nc3)n[nH]2)C1 [Example 15] | < 10 | < 10 | – | –
8 | CC(C)NC(=O)O[C@@H]1CC[C@H](c2cc(Nc3ccc(C(N)=O)cc3)n[nH]2)C1 [Example 46] | < 10 | < 10 | – | –
9 | CC(C)NC(=O)O[C@@H]1CC[C@H](c2cc(Nc3ccc(S(N)(=O)=O)cc3F)n[nH]2)C1 [Example 25] | < 10 | < 10 | – | –
10 | CC(C)NC(=O)O[C@H]1CC[C@@H](c2cc(Nc3ccc(S(N)(=O)=O)cc3F)n[nH]2)C1 [Example 34] | < 10 | < 10 | – | –
11 | CC(C)NC(=O)O[C@@H]1CC[C@H](c2cc(Nc3ccc4c(c3)CCN4S(C)(=O)=O)n[nH]2)C1 [Example 51] | < 10 | 10 to 50 | – | –
12 | CC(C)NC(=O)O[C@@H]1CC[C@H](c2cc(Nc3ccc(N=S(C)(C)=O)cc3)n[nH]2)C1 [Example 59] | 10 to 50 | 10 to 50 | – | –
13 | CC1(NC(=O)O[C@@H]2CC[C@H](c3cc(Nc4ccc5c(c4)CS(=O)(=O)C5)n[nH]3)C2)CC1 [Example 48] | < 10 | < 10 | – | –
14 | CC(C)NC(=O)O[C@@H]1CC[C@H](c2cc(Nc3ccc(S(N)(=O)=O)c(Cl)n3)n[nH]2)C1 [Example 52] | < 10 | < 10 | – | –
15 | CC(C)NC(=O)O[C@@H]1CC[C@H](c2cc(Nc3ccc4c(c3)S(=O)(=O)CC4)n[nH]2)C1 [Example 75] | < 10 | 10 to 50 | – | –
16 | CC(C)NC(=O)O[C@@H]1CC[C@H](c2cc(Nc3ccc(S(C)(=N)=O)c(F)c3)n[nH]2)C1 (stereo partly drawn) [Example 70] | – | – | < 10 | < 10
17 | CC(C)NC(=O)O[C@@H]1CC[C@H](c2cc(Nc3ccc(NS(C)(=O)=O)c(Cl)c3)n[nH]2)C1 [Example 40] | < 10 | < 10 | – | –
18 | CC(C)NC(=O)O[C@@H]1CC[C@H](c2cc(Nc3ccc(NS(C)(=O)=O)c(C(F)(F)F)n3)n[nH]2)C1 [Example 11] | < 10 | < 10 | – | –
19 | CC(C)NC(=O)O[C@@H]1CC[C@H](c2cc(Nc3ccc(N4CCCC4=O)c(F)c3)n[nH]2)C1 [Example 35] | < 10 | < 10 | – | –
20 | CC(C)NC(=O)O[C@@H]1CC[C@H](c2cc(Nc3ccc(S(N)(=O)=O)c(C(F)(F)F)c3)n[nH]2)C1 [Example 66] | < 10 | < 10 | – | –
21 | COCCNc1ccc(Nc2cc(C3CCC(OC(=O)NC(C)C)C3)[nH]n2)nc1 (stereo not drawn) [Example 20] | 10 to 50 | 10 to 50 | – | –
22 | CC(C)NC(=O)O[C@@H]1CC[C@H](c2cc(Nc3ccc(C#N)cc3)n[nH]2)C1 [Example 72] | < 10 | < 10 | – | –
23 | CC(C)NC(=O)O[C@@H]1CC[C@H](c2cc(Nc3ccc(S(C)(=N)=O)c(Cl)c3)n[nH]2)C1 (stereo partly drawn) [Example 73] | – | – | < 10 | < 10
24 | C[C@@H](NC(=O)O[C@@H]1CC[C@H](c2cc(Nc3ccc4c(c3)CS(=O)(=O)C4)n[nH]2)C1)C(F)(F)F [Example 64] | – | – | < 10 | < 10

Row | SMILES | IC50 ([1]; 10 μM ATP) [nM] | IC50 ([2]; 10 μM ATP) [nM] | IC50 [1, 3] [nM] | IC50 [2, 4] [nM]
25 | CC(C)NC(=O)O[C@@H]1CC[C@H](c2cc(Nc3ccc(S(=O)(=O)NC4CC4)cn3)n[nH]2)C1 [Example 68] | < 10 | < 10 | – | –
26 | CC(C)NC(=O)O[C@@H]1CC[C@H](c2cc(Nc3ccc(NS(C)(=O)=O)c(F)c3)n[nH]2)C1 [Example 23] | < 10 | < 10 | – | –
27 | COCc1ccc(Nc2cc(C3CCC(OC(=O)NC(C)C)C3)[nH]n2)nc1 (stereo not drawn) [Example 18] | 10 to 50 | 10 to 50 | – | –
28 | CC(C)NC(=O)O[C@@H]1CC[C@H](c2cc(Nc3ccc(S(N)(=O)=O)c(F)c3)n[nH]2)C1 [Example 33] | < 10 | < 10 | – | –
29 | CC(C)NC(=O)O[C@@H]1CC[C@H](c2cc(Nc3ccc(N(C)S(C)(=O)=O)cn3)n[nH]2)C1 [Example 2] | 10 to 50 | 10 to 50 | – | –
30 | CC(C)NC(=O)O[C@@H]1CC[C@H](c2cc(Nc3ccc(N4CCCS4(=O)=O)cn3)n[nH]2)C1 [Example 28] | < 10 | < 10 | – | –
31 | CC(C)NC(=O)O[C@@H]1CC[C@H](c2cc(Nc3ccc(NS(C)(=O)=O)cc3)n[nH]2)C1 [Example 7] | < 10 | < 10 | – | –
32 | CC(C)NC(=O)OC1CCC(c2cc(NC3CCN(S(C)(=O)=O)CC3)n[nH]2)C1 (stereo not drawn) [Example 22] | 10 to 50 | 10 to 50 | – | –
33 | CC(C)NC(=O)OC1CCC(c2cc(Nc3ncc(NS(C)(=O)=O)cn3)n[nH]2)C1 (stereo not drawn) [Example 19] | < 10 | 10 to 50 | – | –
34 | CC(C)NC(=O)O[C@@H]1CC[C@H](c2cc(NC3CCN(S(=O)(=O)c4cnn(C)c4)CC3)n[nH]2)C1 [Example 60] | 10 to 50 | 10 to 50 | – | –
35 | CC(=O)N(C)c1ccc(Nc2cc([C@H]3CC[C@@H](OC(=O)NC(C)C)C3)[nH]n2)nc1 [Example 4] | 10 to 50 | 10 to 50 | – | –
36 | CC(C)NC(=O)O[C@@H]1CC[C@H](c2cc(Nc3ccc4c(c3)CNS4(=O)=O)n[nH]2)C1 [Example 56] | < 10 | < 10 | – | –
37 | COCCN(C=O)c1ccc(Nc2cc(C3CCC(OC(=O)NC(C)C)C3)[nH]n2)nc1 (stereo not drawn) [Example 12] | 10 to 50 | 10 to 50 | – | –
38 | CNC(=O)O[C@@H]1CC[C@H](c2cc(Nc3ccc4c(c3)CS(=O)(=O)C4)n[nH]2)C1 [Example 53] | < 10 | < 10 | – | –
39 | CC(C)NC(=O)O[C@@H]1CC[C@H](c2cc(Nc3ccc(NS(C)(=O)=O)c(C(F)F)c3)n[nH]2)C1 [Example 74] | – | – | < 10 | < 10
40 | CC(C)NC(=O)O[C@@H]1CC[C@H](c2cc(Nc3ccc(S(=O)(=O)N(C)C)cn3)n[nH]2)C1 [Example 69] | 10 to 50 | 10 to 50 | – | –
41 | CC(=O)Nc1ccc(Nc2cc([C@H]3CC[C@@H](OC(=O)NC(C)C)C3)[nH]n2)nc1 [Example 6] | < 10 | < 10 | – | –
42 | O=C(NC1CC1)O[C@@H]1CC[C@H](c2cc(Nc3ccc4c(c3)CS(=O)(=O)C4)n[nH]2)C1 [Example 67] | < 10 | < 10 | – | –
43 | CC(C)NC(=O)O[C@@H]1CC[C@H](c2cc(Nc3ccc(NS(C)(=O)=O)cn3)n[nH]2)C1 [Example 1] | < 10 | < 10 | – | –
44 | CC(C)NC(=O)O[C@@H]1CC[C@H](c2cc(Nc3ccc(S(=N)(=O)C4CC4)cc3)n[nH]2)C1 (stereo partly drawn) [Example 62] | < 10 | < 10 | – | –
45 | CC(C)NC(=O)O[C@@H]1CC[C@H](c2cc(Nc3ccc(NC=O)cn3)n[nH]2)C1 [Example 5] | < 10 | < 10 | – | –
46 | CC(C)NC(=O)OC1CCC(c2cc(Nc3ccc4c(n3)OCC4)n[nH]2)C1 (stereo not drawn) [Example 21] | < 10 | < 10 | – | –
47 | CC(C)NC(=O)O[C@@H]1CC[C@H](c2cc(Nc3ccc(-c4cnco4)cn3)n[nH]2)C1 [Example 36] | < 10 | 10 to 50 | – | –
48 | CC(C)NC(=O)O[C@@H]1CC[C@H](c2cc(Nc3cc(OC(F)(F)F)c(NS(C)(=O)=O)cn3)n[nH]2)C1 [Example 31] | – | – | < 10 | < 10
